# Measured values as given in patent publication US6159735A, “Calcitonin/calcitonin gene related peptide enhancer element and associated DNA binding proteins” (University of Iowa Research Foundation, priority 1995, dated 2000).
# pIC50, pKd: −log10 of the molar value. Read-outs that look alike come from different tables or passages of the source.
# Assays:
# [1] = tested on: CT/CGRP enhancer; assay: CT/CGRP promoter/enhancer luciferase reporter transfection assay in CA77 cells; format: cell-based, rat
# [2] = tested on: CT/CGRP enhancer; assay: CT/CGRP promoter/enhancer luciferase reporter transfection assay in Rat1 fibroblast cells; format: cell-based, rat
# Source text: Reporter fusion genes were constructed for experiments to localize cis-active elements responsible for glucocorticoid repression of the CT/CGRP gene.
# (§1) The 44-2C rat medullary thyroid carcinoma cell line was maintained in DMEM (high glucose) with 1% equine serum (HyClone Laboratories, Logan, Utah) and 0.1% L-glutamine; CA77 rat medullary thyroid carcinoma cells in Ham's F-12 medium/DMEM (low glucose)(1:1) with 10% fetal bovine serum (HyClone Laboratories); HeLa human epithelial derived cells in Ham's F-12 medium with 10% fetal bovine serum; and Rat1 fibroblast cells in DMEM (high glucose) with 10% calf serum. Also, 100 units/ml penicillin and 100 μg/ml streptomycin (GIBCO) were added to each culture medium.
# (§2) Transfections were carried out by growing cells to approximately 80% confluency, harvesting them by brief trypsin/EDTA treatment, and resuspending them in Ca^2+ /Mg^2+ -free PBS.
# Activity of the reporter genes and control constructs was measured by luciferase, CAT, or β-Galactosidase assays. […] After centrifugation, 20-50 μl of supernatant cell extract was assayed for luciferase activity as previously described (Braiser, A. R., Tate, J. E., and Habener, J. F. (1989) Biotechniques 7, 1116-1122) using a luminometer (Analytical Luminescence Laboratory Monolight 2001). […]
# [3] = tested on: CT/CGRP enhancer; assay: CT/CGRP promoter/enhancer reporter gene (luciferase/CAT) transfection assay in 44-2C cells
# Source text: as §1, §2
# In the retinoic acid experiments, the cells were treated essentially as above except that an apparently critical parameter for retinoic acid inhibition was that the CA77 cells could not be aggregated into clumps. To be consistent, all cell types were subcultured by trypsin treatment 1 day prior to the experiment, except for the 44-2C cells, which often required 2 days to firmly attach. About 4-5×10^6 cells in 0.8 ml were transfected with supercoiled DNA by electroporation using a Biorad Gene Pulser apparatus at 200 volts for the CA77 cells, 220 volts for the HeLa cells, and 260 volts for the 44-2C cells, all with a capacitance of 960 microfarads. The same amount of DNA (20 μg) was used per cuvette unless otherwise indicated. For the α-RXR cotransfection assays, 10 μg 18 bp CT/CGRP-TK-luc plasmid, 18 μg RSV-α-RAR plasmid, or 2 μg β-actin-RXR plasmid (brought to 30 μg total DNA with CMV-β-gal plasmid) were transfected into the cells (constructs described in Glass, C. K., S. M. Lipkin, O. V. Devary, and M. G. Rosenfeld (1989) Cell 59, 697-708; Glass, C. K., O. V. Devary, and M. G. Rosenfeld (1990) Cell 63, 729-738). The transfected cells from a single cuvette were then split between two 60 mm dishes and treated with 1 mM retinoic acid (Sigma) or the vehicle (0.01% ethanol). About 50 to 80% cell survival of the electroporation procedure was observed, except the 44-2C cells, in which approximately 25% of the cells were recovered. The cells were harvested 18-25 hours after transfection. Activities are reported per 50 μg protein unless otherwise noted.
# Activity of the reporter genes and control constructs was measured by luciferase, CAT, or β-Galactosidase assays.
# [4] = tested on: CT/CGRP enhancer; assay: CT/CGRP promoter/enhancer luciferase reporter transfection assay in HeLa cells; format: cell-based, human
# [5] = tested on: cytomegalovirus promoter / thymidine kinase promoter; assay: Control reporter genes CMV-luc and TK-luc in CA77 and 44-2C cells; format: cell-based, rat; conditions: 1 μM retinoic acid
# [6] = tested on: H/OB, OB2, HB1 and Oct-1 complexes on CT/CGRP enhancer; assay: Electrophoretic mobility shift assay of CT/CGRP enhancer complexes in CA77 nuclear extracts; format: biochemical, rat; conditions: nuclear extracts from CA77 cells treated 24 hours with retinoic acid
# Procedure: To perform electrophoretic mobility shift assays, nuclei were harvested from approximately 10^8 cells using a previously described miniextract preparation protocol, with one modification (Lee, K. A. W., and Green, M. R. (1990) Methods Enzymol. 181, 20-25). Instead of dialyzing the extract to remove excess NaCl, the extract was diluted 1:1 with extract buffer lacking NaCl. Aliquots of the diluted extract were stored at -70° C. Annealed oligonucleotide duplexes (10 pmol) containing recessed 3' termini were labeled for use as probes by incorporation of [^32 P]dATP (25 μCi, 3000 Ci/mmol) using Klenow DNA polymerase. Both strands of blunt-ended oligonucleotides (10 pmol) were labeled separately using T4 polynucleotide kinase and [γ-^32 P]ATP (20 μCi, 3000 Ci/mmol), then annealed. Unlabeled oligonucleotides used for competition assays were annealed and then treated with Klenow DNA polymerase if the ends were not already blunt. All probes and competitor DNAs were purified over Sephadex G50 columns.
# The binding reaction (20 μl) contained approximately 3 μg (1-2 μl) of nuclear extract, 0.02 pmol of ^32 P-labeled DNA probe (50,000-100,000 cpm), 10 mM Tris-HCl, pH 7.5, 5% glycerol, 50 mM NaCl, 1 mM EDTA, and 1 mM dithiothreitol. Also, 0.1 μg of poly [d(I-C)] […] Unlabeled competitors were preincubated with nuclear extracts 10 minutes on ice prior to addition of probe. […]
# [7] = molecular target: nuclear retinoic acid receptor (RAR); conditions: literature; read-out: nuclear retinoic acid receptor (RAR) binding affinity Kd; cited from earlier work
# [8] = tested on: retinoic acid responsive element from the β-retinoic acid receptor gene (RARE-TK-luc); assay: cells; conditions: Rattus norvegicus
# Procedure: In the retinoic acid experiments, the cells were treated essentially as above except that an apparently critical parameter for retinoic acid inhibition was that the CA77 cells could not be aggregated into clumps. […] About 4-5×10^6 cells in 0.8 ml were transfected with supercoiled DNA by electroporation using a Biorad Gene Pulser apparatus at 200 volts for the CA77 cells, 220 volts for the HeLa cells, and 260 volts for the 44-2C cells, all with a capacitance of 960 microfarads. The same amount of DNA (20 μg) was used per cuvette unless otherwise indicated. For the α-RXR cotransfection assays, 10 μg 18 bp CT/CGRP-TK-luc plasmid, 18 μg RSV-α-RAR plasmid, or 2 μg β-actin-RXR plasmid (brought to 30 μg total DNA with CMV-β-gal plasmid) were transfected into the cells (constructs described in Glass, C. K., S. M. Lipkin, O. V. Devary, and M. G. Rosenfeld (1989) Cell 59, 697-708; Glass, C. K., O. V. Devary, and M. G. Rosenfeld (1990) Cell 63, 729-738). The transfected cells from a single cuvette were then split between two 60 mm dishes and treated with 1 mM retinoic acid (Sigma) or the vehicle (0.01% ethanol). […] The cells were harvested 18-25 hours after transfection. Activities are reported per 50 μg protein unless otherwise noted.
# Activity of the reporter genes and control constructs was measured by luciferase, CAT, or β-Galactosidase assays. To carry out the luciferase assays, cells were washed twice in PBS, harvested by scraping into PBS and then lysed in 100 μl of Triton lysis buffer (1% Triton X-100, 25 mM glycylclycine, pH 7.8, 15 mM MgSO4, 1 mM dithiothreitol). After centrifugation, 20-50 μl of supernatant cell extract was assayed for luciferase activity as previously described (Braiser, A. R., Tate, J. E., and Habener, J. F. (1989) Biotechniques 7, 1116-1122) using a luminometer (Analytical Luminescence Laboratory Monolight 2001). The assay was linear between 100 (background) and at least 800,000 light units.
# [9] = tested on: calcitonin and CGRP mRNA; conditions: CA77 cells, retinoic acid treatment, literature; cited from earlier work
structure (smiles),measurement,setting,value
"CC1=C(/C=C/C(C)=C/C=C/C(C)=C/C=O)C(C)(C)CCC1 [Retinal, retinal]",minimal effective concentration,"[1]; Rattus norvegicus, 1125 CAL-luc, read-out: concentrations at which CT/CGRP promoter activity was repressed",≥ 0.1 µM
same,pIC50,"[1]; Rattus norvegicus, 1125 CAL-luc, read-out: half-maximal repression of CT/CGRP promoter activity",6.52
C[C@@H]1C[C@H]2[C@@H]3CCC4=CC(=O)C=C[C@]4(C)[C@@]3(F)[C@@H](O)C[C@]2(C)[C@@]1(O)C(=O)CO [dexamethasone],repression of calcitonin/CGRP promoter fusion genes containing the -920-1125-bp element,[1]; dexamethasone treatment,did not repress
same,repression with smaller elements that include the 18-bp region (TK-LUC),[1]; p<0.01,1.6 fold
same,repression of activity of the -920-1125-bp region (TK-LUC),[1]; p<0.05,1.2 fold
same,repression of activity of the -920-1125 enhancer,[2],did not repress
same,repression of -920-1125 TK-LUC fusion gene expression,"[3]; 44-2C cells, 500 nM dexamethasone",2.5-3 fold
same,repression of promoter activity of fusion genes containing at least 1125 bp of upstream sequences,"[3]; 44-2C cells, 500 nM dexamethasone, 24 h",2.5-4.5 fold
same,"repression of -920-1125 TK-LUC fusion gene expression, in a few experiments","[3]; 44-2C cells, 500 nM dexamethasone, a few experiments",≤ 10 fold
same,effect on gene activity from the shorter constructs,"[3]; 44-2C cells, 500 nM dexamethasone, constructs lacking -920-1125 region",slightly stimulated
same,repression with -1091-1017 and -1043-1025 elements (TK-LUC),"[3]; 44-2C cells, dexamethasone",24 fold
same,repression of -920-1125-TK-LUC promoter activity in dose response,"[3]; 44-2C cells, dexamethasone concentrations above 50 nM, 24 h",approximately 10 fold
same,pIC50,"[3]; Rattus norvegicus, 24 h, read-out: dexamethasone concentration for half-maximal inhibition of -920-1125-TK-LUC",8.60
same,repression of activity of the -920-1125 enhancer,[4]; HeLa cells,did not repress
same,stimulation of reporter activity of all plasmids including TK-LUC,[4]; non-neuroendocrine cells,1.5-2 fold
CC1=C(/C=C/C(C)=C/C=C/C(C)=C/C(=O)O)C(C)(C)CCC1 [retinoic acid],retinoic acid dependent repression with 75 bp and 18 bp fragments (TK-luc),[1],comparable to the full 205 bp region
same,retinoic acid dependent repression with 1039-1125-TK-luc and 920-1038-TK-luc,[1],Neither 1039-1125-TK-luc nor 920-1038-TK-luc exhibited retinoic acid dependent repression
same,retinoic acid repression with HLH or Oct mutant constructs,[1],neither the HLH or Oct mutant constructs conferred retinoic acid repression
same,"maximal repression of 1125 CAL-luc, decrease of control activity",[1]; 100 nM retinoic acid,3 fold
same,repression of promoter fragments containing 920 bp or less,[1]; 1 μM retinoic acid,not repressed
same,decrease in promoter activity of luciferase fusion genes containing 1125 bp or more 5' flanking sequences,"[1]; 1 μM retinoic acid, 24 hours",2-3 fold
same,repression in CAL1125-luc activity without cotransfected receptor,"[1]; 1 μM retinoic acid, parallel cultures",2 fold
same,retinoic acid dependent repression in CAL1125-luc activity with cotransfected α-RAR,"[1]; 1 μM retinoic acid, α-RAR expression vector",5 fold
same,pIC50,"[1]; Rattus norvegicus, read-out: amount required for half-maximal repression of 1125 CAL-luc",~9.70
same,effect on TK-luc activity,[5]; 44-2C cells,no effect
same,effect on CMV-luc and TK-luc,[5]; CA77 cells,not significantly affected
same,repression of 1125-920-TK-luc activity,"[3]; 44-2C cells, 1 μM retinoic acid",2 fold
same,effect on 1125-920-TK-luc activity,"[4]; HeLa cells, 1 μM retinoic acid, also with α-RAR/α-RXR cotransfection",no effect
same,"change in OB2, HB1, or Oct-1 complexes",[6],no significant change
same,decrease in H/OB complex (densitometric scans),[6],~2 fold
same,pKd,[7],9.70
same,fold induction at 1 µM,"[8]; read-out: increase in RARE-TK-luc activity, 44-2C cells, 1 μM retinoic acid",35
same,fold induction at 1 µM,"[8]; read-out: increase in RARE-TK-luc activity, CA77 cells, 1 μM retinoic acid, no cotransfected receptor",5
same,fold induction at 1 µM,"[8]; read-out: retinoic acid dependent stimulation of RARE-TK-luc activity with cotransfected α-RAR, CA77 cells, 1 μM retinoic acid, α-RAR expression vector",15
same,decrease in calcitonin and CGRP mRNA levels,[9],2-3 fold
